Read-outs that look alike come from different tables or passages of the source. Ends that are not written are not given here.

For one data set, the system named is HEp-2 cells. The note with it: MTT. How it is done:
(§1) Initially, characterization of Lfcin (17–30) was performed by determining its minimum inhibitory concentration (MIC), minimum bactericidal concentration (MBC), in vitro stability assays (high-end temperatures, the physiological concentration of cationic salts and proteases), and in vitro safety assays (sheep erythrocyte hemolysis and secondary cell line cytotoxicity) (Supplementary Files S1–S3). The membrane permeabilization effect of Lfcin (17–30) was assessed by flow cytometry, whereas outer and inner membrane permeability of MDR-EAEC strains treated with 1 × and 2 × MIC levels of Lfcin (17–30) was carried out based on the nitrocefin activity as well as the release of cytoplasmic β-galactosidase activity, respectively (Supplementary File S4). Further, Lfcin (17–30) was evaluated for its antibacterial activity against beneficial lactobacilli (L. acidophilus MTCC 10307 and L. rhamnosus MTCC 1408) (Supplementary File S5).
(§2) To determine the safety of Lfcin (17-30) on host cells, a haemolytic assay using sheep erythrocytes as well as cytotoxicity assay using secondary cell lines were performed with 1X, 2X and 4X MICs of Lfcin (17-30), respectively. In brief, haemolytic assay was performed, wherein the haemolytic activity of Lfcin (17-30) was tested by determining the extent of haemoglobin release from sheep erythrocytes (10%). Further, the safety aspect of Lfcin (17-30) was evaluated on secondary cell line viz., human epithelioma cell line (HEp-2), and murine macrophage cell line (RAW 264.7) by performing MTT [3-(4,5-dimethylthiazole-2-yl)-2,5-diphenyl tetrazolium bromide] assay.

The next data set concerns RAW 264.7 cells. The note with it: MTT. The method, then: as §1, §2
For the next data set, the system named is sheep erythrocytes. As to conditions: sheep erythrocytes (10%). How it is done: as §1, §2
Data set [1] deals with L. acidophilus MTCC 10307. The note with it: 1X MIC, MRS broth, 37°C, 48 h, absorbance 600 nm and plating. The method, then: as §1
(§3) Besides, the safety aspect of Lfcin (17-30) against beneficial gut lactobacilli was also investigated. […] After incubation at 37 °C for 48 h, the antibacterial effect of AMP on commensal lactobacilli was measured by observing the absorbance at 600 nm (Thermo Scientific Multiskan GO) as well as drawing two 10 µl samples from each well and plating them onto MRS agar plates. […]

In another data set the test system is L. rhamnosus MTCC 1408. As to conditions: 1X MIC, MRS broth, 37°C, 48 h, absorbance 600 nm and plating. The method, then: as §1, §3
A further data set concerns G. mellonella larvae. The data set is described as follows: LDH cytotoxicity assay of larval haemolymph. The class given is in vivo, Galleria mellonella. The method, then:
(§4) Galleria mellonella larvae were grouped 40 per group for in vivo antimicrobial testing of Lfcin (17–30) as follows: group I (MDR-EAEC infection control), groups II and III (infection + treatment groups), group IV (PBS control), and group V [Lfcin(17–30) control]. Optimized LD50 dose of MDR-EAEC (a cocktail of three strains) was administered to larvae of groups I to III, while MIC dose of Lfcin (17–30) and Meropenem was administered 3 h post-infection (pi) in groups II and III, respectively. Larval group IV was injected with sterile PBS, whereas MIC dose of Lfcin (17–30) was administered in group V.
The larvae were then observed for their survival rate, melanization (Supplementary Information S7), MDR-EAEC counts (Supplementary Information S8), hemocyte density (Supplementary Information S9) ([Wand et al., 2013]), lactate dehydrogenase (LDH) cytotoxicity assay (Supplementary Information S10) ([Gibreel and Upton, 2013]), and histopathology (Supplementary Information S11) ([Perdoni et al., 2014]), at an interval of 6 h till 24 h, followed by 24-h interval up to 120 h pi.
G. mellonella (n=3 larvae per group) were analysed for the production of LDH, as a marker of cell damage, at an interval of 6 h pi for 24 h, followed by 24 h interval till 96 h pi using QuantiChrom LDH cytotoxicity assay kit, according to the manufacturer’s instructions. The positive and negative controls used in this study were […]. The absorbance was read using ELISA plate reader at 500 nm; the haemolymph from untreated larvae served as background control and the cytotoxicity was calculated as, Cytotoxicity (%) = (ODSample - ODControl)/ (ODTotal Lysis - ODControl) x 100, wherein, sample is the control absorbance of treated cell; control is the experimental absorbance of the untreated cell control and total lysis is the absorbance of Triton X-100 treated cells.

In data set [2] the test system is G. mellonella larvae infected with MDR-EAEC (a cocktail of three strains). The data set is described as follows: G. mellonella larval survival. The class given is in vivo, Galleria mellonella. The note with it: uninfected larvae, MIC dose, up to 120 h pi. The method, then: The final instar of G. mellonella larvae was utilized for performing the in vivo assays ([Morgan et al., 2014]). The larvae (ca. 200–250 mg) inoculated with aliquots of MDR-EAEC suspensions (10 μl) by injection using Hamilton syringe (26 gauge) via the last right pro-leg were incubated at 37°C and the observations were noted. The larvae kept in a sterile environment were provided with ad lib food during the experiment.
The determined LD50 dose for each MDR-EAEC strain in the larvae was validated and employed further in the in vivo experiments to evaluate the antibacterial efficacy of Lfcin (17–30).
as §4, with “V. […]” for “V.”

Data set [3] relates to preformed (48 h) MDR-EAEC biofilm. The note with it: preformed (48 h) biofilm of MDR-EAEC strains. The method, then: The MBEC of Lfcin (17–30) was determined against the preformed (48 h) MDR-EAEC biofilm ([Ceri et al., 1999]). MBEC value is the lowest concentration of Lfcin (17–30) that prevented the MDR-EAEC re-growth. This MBEC value of Lfcin (17–30) was further used to study the eradication of biofilm formed by MDR-EAEC strains.

Take FKCRRWQWRMKKLG [Lfcin (17–30)]: the “cytotoxicity / morphological changes” value in the data set with HEp-2 cells (HEp-2, 1× and 2× MIC) is “remarkable morphological changes were not evident”; with RAW 264.7 cells (RAW 264.7, 1× and 2× MIC), “remarkable morphological changes were not evident”. Moreover, the cytotoxicity entry in the data set on HEp-2 cells (HEp-2, 4× MIC) is listed as “moderate to higher cytotoxicity”; in the data set on RAW 264.7 cells (RAW 264.7, 4× MIC), “moderate to higher cytotoxicity”. Also, the “Haemolysis (%)” value with sheep erythrocytes (MIC (1X)) and with sheep erythrocytes (MIC (2X)) was “non-hemolytic” throughout. The “antimicrobial effect on beneficial lactobacilli” value (in data set [1]; in the data set on L. rhamnosus MTCC 1408) was “non-significant” throughout. Further, the results for the LDH cytotoxicity entry with G. mellonella larvae (infected larvae treated 3 h pi) and in the data set with G. mellonella larvae (uninoculated larvae treated with MIC dose) were “cytotoxicity remained increased up to 48 h pi” and “significantly increased cytotoxicity was observed at 6 to 18 h pi”, respectively. In data set [2], this sequence gave a survival rate of 100%. Further, the MBEC in data set [3] worked out at 32 µM.

The record behind these values is publication PMC7531601, “Exploiting Lactoferricin (17–30) as a Potential Antimicrobial and Antibiofilm Candidate Against Multi-Drug-Resistant Enteroaggregative Escherichia coli” (Frontiers in Microbiology, 2020).
